Measured values taken from ChEMBL document CHEMBL4373726, “Novel amides modified rupestonic acid derivatives as anti-influenza virus reagents” (Bioorg Med Chem Lett, 2019).

How the values were obtained:
[1] = tested on: Influenza A virus; assay: Antiviral activity against Influenza A virus H1N1 infected in dog MDCK cells assessed as inhibition in virus-induced cytopathic effect incubated for 40 hrs; format: functional, organism-based
[2] = Selectivity index, ratio of TC50 for cytotoxicity against dog MDCK cells to IC50 for antiviral activity against Influenza A virus H1N1 infected in dog MDCK cells; format: toxicity, cell-based; conditions: read-out: Selectivity Index
[3] = tested on: Influenza A virus H3N2; assay: Antiviral activity against Influenza A virus H3N2 infected in dog MDCK cells assessed as inhibition in virus-induced cytopathic effect incubated for 40 hrs; format: functional, organism-based
[4] = tested on: Influenza B virus; assay: Antiviral activity against Influenza B virus infected in MDCK cells assessed as inhibition in virus-induced cytopathic effect incubated for 40 hrs; format: functional, organism-based
[5] = Cytotoxicity against MDCK cells assessed as reduction in cell viability incubated for 48 hrs; format: cell-based, Canis lupus familiaris; conditions: dog, read-out: TC50
[6] = Selectivity index, ratio of TC50 for cytotoxicity against dog MDCK cells to IC50 for antiviral activity against Influenza A virus H3N2 infected in dog MDCK cells; format: toxicity, cell-based; conditions: read-out: Selectivity Index
[7] = Selectivity index, ratio of TC50 for cytotoxicity against dog MDCK cells to IC50 for antiviral activity against Influenza B virus infected in dog MDCK cells; format: toxicity, cell-based; conditions: read-out: Selectivity Index

| SMILES | IC50 [1] [µM] | selectivity ratio [2] | IC50 [3] [µM] | IC50 [4] [µM] | CC50 at 48 h [5] [µM] | selectivity ratio [6] | selectivity ratio [7] |
| --- | --- | --- | --- | --- | --- | --- | --- |
| C=C(C(=O)OC)[C@@H]1CC[C@H](C)[C@@H]2CC(=O)C(C)=C2C1 | 72.7 | 3 | > 71.8 | > 71.1 | – | – | – |
| C=C(C(=O)NCc1ccc(B(O)O)cc1)[C@@H]1CC[C@H](C)[C@@H]2CC(=O)C(C)=C2C1 | 85.4 | 3.3 | 65.9 | 80 | 262 | 4 | 3.3 |
| C=C(C(=O)Nc1ncc(B(O)O)cn1)[C@@H]1CC[C@H](C)[C@@H]2CC(=O)C(C)=C2C1 | 96 | 3.3 | 87.4 | 135 | 315 | 3.6 | 2.4 |
| C=C(C(=O)Nc1ccc2c(c1)COB2O)[C@@H]1CC[C@H](C)[C@@H]2CC(=O)C(C)=C2C1 | > 49.1 | – | > 49.1 | > 49.1 | 254 | – | – |
| C=C(C(=O)NCc1cccc(B(O)O)c1)[C@@H]1CC[C@H](C)[C@@H]2CC(=O)C(C)=C2C1 | 43.3 | 6 | 63.5 | 90.3 | 252 | 4 | 2.8 |
| C=C(C(=O)OC)[C@@H]1CC[C@H](C)[C@H]2C(=C(C)C(=O)[C@H]2NC(=O)C(C)CCl)C1 (some centres not stated) | > 422 | – | 422 | > 422 | 735 | 1.7 | – |
| C=C(C(=O)OC)[C@@H]1CC[C@H](C)[C@H]2C(=C(C)C(=O)[C@H]2NS(=O)(=O)c2ccc(F)cc2)C1 | 8.1 | 3 | 10.2 | 14.7 | 25.1 | 2.5 | 1.7 |
| C=C(C(=O)OC)[C@@H]1CC[C@H](C)[C@H]2C(=C(C)C(=O)[C@H]2NS(C)(=O)=O)C1 | 40.5 | 5.6 | 52.4 | 40.3 | 226 | 4.3 | 5.6 |
| C=C(C(=O)Nc1ccc(B(O)O)cc1)[C@@H]1CC[C@H](C)[C@@H]2CC(=O)C(C)=C2C1 | > 452 | – | > 452 | > 451 | 939 | – | – |
| C=C(C(=O)Nc1cccc(B(O)O)c1)[C@@H]1CC[C@H](C)[C@@H]2CC(=O)C(C)=C2C1 | 129 | 4.9 | 146 | 147 | 632 | 5.3 | 4.3 |
| C=C(C(=O)OC)[C@@H]1CC[C@H](C)[C@H]2C(=C(C)C(=O)[C@H]2NC(=O)c2ccccc2)C1 | 38.4 | 2.2 | > 16.5 | 43.8 | 84.3 | – | 1.9 |
| C=C(C(=O)OC)[C@@H]1CC[C@H](C)[C@H]2C(=C(C)C(=O)[C@H]2NC(C)=O)C1 | 174 | 4.9 | > 175 | 522 | 753 | – | 1.7 |
| C=C(C(=O)OC)[C@@H]1CC[C@H](C)[C@H]2C(=C(C)C(=O)[C@H]2NC(=O)CNC(=O)c2ccccc2)C1 | 101 | 4.9 | > 114 | > 114 | 488 | – | – |
| C=C(C(=O)OC)[C@@H]1CC[C@H](C)[C@H]2C(=C(C)C(=O)[C@H]2NC(=O)c2ccc(B(O)O)cc2)C1 | 44.6 | 4.3 | > 44.5 | > 44.2 | 188 | – | – |
| C=C(C(=O)OC)[C@@H]1CC[C@H](C)[C@H]2C(=C(C)C(=O)[C@H]2NC(=O)CC#N)C1 | 485 | 3 | > 485 | 484 | 1450 | – | 3 |
| C=C(C(=O)OC)[C@@H]1CC[C@H](C)[C@H]2C(=C(C)C(=O)[C@H]2NS(=O)(=O)c2ccc(C)cc2)C1 | 14.5 | 4.3 | > 14.9 | 14.1 | 61.1 | – | 4.3 |
| CCOC(=O)C1=C[C@@H](OC(CC)CC)[C@H](NC(C)=O)[C@@H](N)C1 [OSELTAMIVIR] | 15.6 | – | 11.3 | > 488 | 1410 | 132 | – |
| C=C(C(=O)O)[C@@H]1CC[C@H](C)[C@@H]2CC(=O)C(C)=C2C1 [PECHUELOIC ACID] | – | 4.3 | – | – | – | 4.3 | 10 |
| NC(=O)c1ncn([C@@H]2O[C@H](CO)[C@@H](O)[C@H]2O)n1 [RIBAVIRIN] | 8.5 | 363 | 10.6 | 8 | – | 476 | 714 |
